This note sets out measurements from PubChem BioAssay (NCI).

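Where inhibition never reached the appropriate level, the endpoint shown equals the highest concentration tested. Otherwise, values were interpolated linearly from a five-concentration, 48-hour dose response in 96-well plates. Here, GI50 denotes the concentration required for 50% inhibition of growth. TGI marks complete inhibition of growth.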

Test systems include A498 renal; T-47D breast; RPMI-8226 leukemia; 786-0 renal; SK-MEL-2 melanoma; K-562 leukemia; ACHN renal; LOX IMVI melanoma.
What all share (test): inhibition of tumour cell growth, NCI panel, 48 h

With `O=C(Nc1ccccc1)Nc1ccc2cc3ccc(NC(=O)Nc4ccccc4)cc3nc2c1`, the GI50 is 2.74 µM in the assay with A498 renal; 1.53 µM in the assay on T-47D breast; 5.42 µM with RPMI-8226 leukemia; 1.64 µM in the assay on 786-0 renal; 1.72 µM with SK-MEL-2 melanoma; 0.363 µM in the assay with K-562 leukemia. The GI50 with ACHN renal was 3.57 µM; in the assay on LOX IMVI melanoma, 0.467 µM. In addition, the TGI is 8.87 µM in the assay on A498 renal; 3.08 µM in the assay on T-47D breast; more than 100 µM with RPMI-8226 leukemia; 3.34 µM with 786-0 renal; 3.24 µM in the assay with SK-MEL-2 melanoma; 1.1 µM in the assay with K-562 leukemia. The TGI was more than 100 µM with ACHN renal and 1.67 µM with LOX IMVI melanoma.

For the compound `O=C1CC(c2cccc(F)c2)Nc2cc3c(cc21)OCO3` (centres undefined), the TGI in the assay on A498 renal was more than 100 µM; in the assay on T-47D breast, more than 100 µM; in the assay on RPMI-8226 leukemia, 0.162 µM; with 786-0 renal, more than 100 µM; with K-562 leukemia, more than 100 µM; in the assay on ACHN renal, 22.6 µM. Besides, the TGI in the assay with LOX IMVI melanoma was more than 100 µM. For the same compound, the GI50 with 786-0 renal, with ACHN renal and in the assay with LOX IMVI melanoma was less than 0.01 µM in each case.

In the case of `COc1cc(Nc2ncc(-c3ccccc3)o2)cc(OC)c1`, the GI50 in the assay on A498 renal is 5.57 µM; in the assay with T-47D breast, more than 25 µM; with RPMI-8226 leukemia, more than 25 µM; with 786-0 renal it was more than 25 µM; in the assay on SK-MEL-2 melanoma, more than 25 µM; in the assay on K-562 leukemia, more than 22.5 µM. The GI50 in the assay with ACHN renal was 17.4 µM; with LOX IMVI melanoma, more than 25 µM. In addition, the TGI in the assay with A498 renal, in the assay with T-47D breast, in the assay with RPMI-8226 leukemia, in the assay on 786-0 renal, in the assay on SK-MEL-2 melanoma and with K-562 leukemia was more than 25 µM throughout. Further, the TGI in the assay on ACHN renal and with LOX IMVI melanoma was more than 25 µM each time.

For `OC(COC(c1ccccc1)(c1ccccc1)c1ccccc1)C(O)CC1SCCS1` (centres undefined), the TGI in the assay with A498 renal was 28.4 µM; with T-47D breast, 58.3 µM; with RPMI-8226 leukemia, 34.2 µM; with 786-0 renal, 39.7 µM; in the assay on SK-MEL-2 melanoma, 34.3 µM; with K-562 leukemia, more than 100 µM. The TGI with ACHN renal worked out at 38.3 µM; in the assay with LOX IMVI melanoma it was 32 µM.

For `COc1ccc(C/C(=C(\C)c2ccc(OCCN3CCCC3)cc2)c2ccc(OCCN3CCCC3)cc2)cc1`, the GI50 is 2.5 µM with A498 renal; 1.69 µM in the assay with T-47D breast; 1.87 µM with RPMI-8226 leukemia; 1.63 µM in the assay with 786-0 renal; 1.87 µM in the assay with SK-MEL-2 melanoma; 1.53 µM in the assay on K-562 leukemia. The GI50 in the assay with ACHN renal was 1.74 µM; with LOX IMVI melanoma, 1.73 µM. Moreover, the TGI in the assay with A498 renal amounted to 8.04 µM; in the assay with T-47D breast it was 3.37 µM; in the assay with RPMI-8226 leukemia, 4.3 µM; in the assay on 786-0 renal, 3.24 µM; in the assay with SK-MEL-2 melanoma, 3.53 µM; in the assay on K-562 leukemia it was 3.6 µM. The TGI in the assay on ACHN renal was found to be 3.12 µM; with LOX IMVI melanoma, 3.18 µM.

Regarding `COCc1c(-c2cc3cc(C)cc(OC)c3s2)c2c(N)ncnn2c1CN1CCNC(=O)C1`, the GI50 is 0.0102 µM in the assay with A498 renal; 4.84 µM in the assay with T-47D breast; 1.58 µM with RPMI-8226 leukemia; 5.86 µM in the assay with 786-0 renal; 2.83 µM with SK-MEL-2 melanoma; 4.31 µM in the assay on ACHN renal. Moreover, in the assay on LOX IMVI melanoma, the GI50 is 3.05 µM. Also, the TGI in the assay with A498 renal was determined as 0.0803 µM; in the assay with T-47D breast, 47.4 µM; with RPMI-8226 leukemia, 6.83 µM; in the assay on 786-0 renal it was 82.9 µM; with SK-MEL-2 melanoma, 8.61 µM; in the assay on ACHN renal, 55.5 µM. For the same compound, in the assay on LOX IMVI melanoma, the TGI was 13.5 µM.

As to `COC(=O)c1ccc(CN2C(=O)C(Cl)=C(Nc3cccc(Cl)c3C)C2=O)cc1`, the GI50 is 2.54 µM in the assay on A498 renal; more than 100 µM in the assay on T-47D breast; 3.76 µM in the assay on RPMI-8226 leukemia; 15.6 µM in the assay on 786-0 renal; 3.48 µM with SK-MEL-2 melanoma; 4.32 µM in the assay on K-562 leukemia. Also, the GI50 was 33.7 µM in the assay with ACHN renal and 32.3 µM with LOX IMVI melanoma. Moreover, the TGI in the assay on A498 renal was 15.2 µM; in the assay on T-47D breast it was more than 100 µM; with RPMI-8226 leukemia, 48.2 µM; in the assay with 786-0 renal it was 51.5 µM; with SK-MEL-2 melanoma, 21.9 µM; in the assay with K-562 leukemia, 21.1 µM. Besides, the TGI with ACHN renal is 90.4 µM; with LOX IMVI melanoma, more than 100 µM.

As to `COc1ncc(Nc2ncc([C@@H](C)N3CCN(S(C)(=O)=O)CC3)cc2-c2nc(C)nc(N)n2)cc1F`, the GI50 in the assay on A498 renal was less than 0.01 µM; with T-47D breast it was less than 0.01 µM; in the assay on RPMI-8226 leukemia, 7.13 µM; with 786-0 renal, 0.0192 µM; in the assay on SK-MEL-2 melanoma, 2.05 µM; with K-562 leukemia it was 14.3 µM. Also, the GI50 was 0.0651 µM in the assay with ACHN renal and 0.32 µM in the assay with LOX IMVI melanoma. Moreover, the TGI in the assay on A498 renal was 0.0309 µM; in the assay with T-47D breast, 0.0648 µM; with RPMI-8226 leukemia it was more than 100 µM; in the assay on 786-0 renal it was 2.86 µM; in the assay on SK-MEL-2 melanoma, more than 69.6 µM; with K-562 leukemia, more than 100 µM. Besides, the TGI is more than 100 µM in the assay with ACHN renal and 12.5 µM in the assay on LOX IMVI melanoma.

Regarding `COc1ccc2c(c1OC)CO[C@@H]2[C@H]1c2c(cc3c(c2OC)OCO3)CCN1S(=O)(=O)c1cn(C)cn1`, the GI50 in the assay with A498 renal is 0.588 µM; in the assay with T-47D breast, 16.9 µM; with RPMI-8226 leukemia, 2.48 µM; in the assay on 786-0 renal, 0.968 µM; in the assay with SK-MEL-2 melanoma it was 2.17 µM; in the assay with K-562 leukemia it was 0.413 µM. The GI50 is 1.73 µM in the assay on ACHN renal and 4.48 µM in the assay on LOX IMVI melanoma. Besides, the TGI is 9.75 µM in the assay with A498 renal; more than 100 µM in the assay with T-47D breast; 30.2 µM with RPMI-8226 leukemia; more than 100 µM in the assay on 786-0 renal; more than 100 µM in the assay on SK-MEL-2 melanoma; more than 100 µM with K-562 leukemia. Also, the TGI in the assay on ACHN renal and with LOX IMVI melanoma was more than 100 µM in each case.

In the case of `CCOCCCn1c2c(c3c(O)cccc31)C(=O)c1ccccc1-2`, the GI50 in the assay on A498 renal is 21.7 µM; in the assay with T-47D breast, 13.9 µM; in the assay with RPMI-8226 leukemia, 16.4 µM; in the assay on 786-0 renal, 22 µM; with SK-MEL-2 melanoma it was 20.3 µM; in the assay on K-562 leukemia it was 18.6 µM. In addition, the GI50 in the assay on ACHN renal is 20.6 µM; in the assay with LOX IMVI melanoma it was 17.2 µM. Further, the TGI in the assay with A498 renal was 52.5 µM; with T-47D breast, 46.5 µM; in the assay with RPMI-8226 leukemia, 43.9 µM; with 786-0 renal, 51.9 µM; with SK-MEL-2 melanoma, 38.5 µM; in the assay on K-562 leukemia, 55.7 µM. The figures for the TGI in the assay on ACHN renal and in the assay on LOX IMVI melanoma were 55 µM and 32.7 µM, respectively.
